Assay results taken from ChEMBL document CHEMBL1201862, “PubChem BioAssay data set” (2004).
The source made the active and inactive calls.

Tests used:
[1] = viability of uninfected HEp-2 cells – cell-based, HTS, cytotoxicity control for RSV inhibitor project, dose response (AID 2410); type: functional; conditions: human respiratory syncytial virus
[2] = Luminescence Cell-Based Dose Confirmation HTS to Identify Activators of 5'UTR Stem-Loop Driven Alpha-Synuclein mRNA Translation in H4 Neuroglioblastoma Cells. [Related pubchem assays: 1829 (Project Summary), 1814 (Primary HTS)]; type: functional
[3] = Luminescence Cell-Based Dose Response HTS to Identify Activators of Luciferase Translation or Activity in H4 […] Cells. [Related pubchem assays: 1829 (Project Summary), 1814 (Primary HTS)]; type: functional
[4] = test system: H4; assay: Luminescence Cell-Based Dose Response HTS to Identify Activators of 5'UTR Stem-Loop Driven Prion Protein mRNA Translation in H4 Neuroglioblastoma Cells. [Related pubchem assays: 1829 (Project Summary), 1814 (Primary HTS)]; type: functional; conditions: Homo sapiens
[5] = cells; type: functional, cell-based
[6] = Trypanosoma cruzi growth suppression in host cells – NIH3T3 host cells, beta-gal luminescence, confirmation (AID 2044); type: functional, cell-based;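 also: intracellular parasites grown in NIH/3T3 mouse fibroblasts as host cells; luminescent beta-galactosidase reporter signal from transgenic T. cruzi replicating inside host cells; inhibitors lower the luminescence signal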
[7] = cells; type: functional, cell-based; remark: listed apart in the source
[8] = NIH3T3 cell viability loss – ATP luminescence, mouse fibroblasts, counter-screen, dose response (AID 2010); type: functional, cell-based;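 also: cells exposed to compound for about 90 hours before reading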
[9] = test system: INS1; assay: INS-1E survival protection against cytokine death – cell-based, luminescence, retest, dose response (AID 449756); type: functional; conditions: Rattus norvegicus;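 also: cell death triggered by IL-1 beta plus TNF-alpha plus IFN-gamma mixture; protective hits raise ATP signal compared with cytokine alone wells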
[10] = molecular target: Nonstructural protein 1 (Influenza A virus, UniProt Q194T2); type: functional, Influenza A virus (A/California/07/2009(H1N1))
[11] = molecular target: Peroxisome proliferator-activated receptor gamma/Nuclear receptor coactivator 1 (Homo sapiens, UniProt P37231); assay: (§1) TR-FRET dose response biochemical High Throughput Screening assay for agonists of the steroid receptor coactivator 1 (SRC-1) recruitment by the peroxisome proliferator-activated receptor gamma (PPAR gamma): non-selective agonists. [Related pubchem assays (depositor defined):AID1300, AID1808, AID504735, AID631]; type: protein assay
[12] = molecular target: Peroxisome proliferator-activated receptor gamma/Nuclear receptor coactivator 3 (Homo sapiens, UniProt P37231); assay: as §1, with “3 (SRC-3)” for “1 (SRC-1)”, “assays: 1301 (Confirmation screen.), 1048 (Primary screen.)]” for “assays (depositor defined):AID1300, AID1808, AID504735, AID631]”; type: functional
[13] = molecular target: Peroxisome proliferator-activated receptor gamma/Nuclear receptor coactivator 2 (Homo sapiens, UniProt P37231); assay: TR-FRET dose response biochemical High Throughput Screening assay for agonists of the steroid receptor coactivator 2 (SRC-2) recruitment by the peroxisome proliferator-activated receptor gamma (PPAR gamma): non-selective agonists. [Related pubchem assays: 1297, 1032 ]; type: functional
[14] = reduction of Shn3 3'UTR-driven luciferase in osteoblasts – cell-based, Clone20 osteoblasts, firefly luciferase, cherry-picked, dose response (AID 624132); type: functional;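 also: firefly luciferase luminescence from reporter carrying the Shn3 3'UTR in osteoblasts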
[15] = loss of viability in HepG2 cells – cell-based, CellTiter-Glo, cherry-picked, cytotoxicity control for Shn3 inhibitor project, dose response (AID 624134); type: functional
[16] = non-specific 3'UTR reporter inhibition in Clone20-Shn3RL – cell-based, Renilla luciferase, cherry-picked, counter-screen for Shn3 inhibitor project, dose response (AID 624133); type: functional
[17] = molecular target: T1, Protein skinhead-1 (Caenorhabditis elegans, UniProt P34707); type: functional
T1 sequence (P34707 whole entry): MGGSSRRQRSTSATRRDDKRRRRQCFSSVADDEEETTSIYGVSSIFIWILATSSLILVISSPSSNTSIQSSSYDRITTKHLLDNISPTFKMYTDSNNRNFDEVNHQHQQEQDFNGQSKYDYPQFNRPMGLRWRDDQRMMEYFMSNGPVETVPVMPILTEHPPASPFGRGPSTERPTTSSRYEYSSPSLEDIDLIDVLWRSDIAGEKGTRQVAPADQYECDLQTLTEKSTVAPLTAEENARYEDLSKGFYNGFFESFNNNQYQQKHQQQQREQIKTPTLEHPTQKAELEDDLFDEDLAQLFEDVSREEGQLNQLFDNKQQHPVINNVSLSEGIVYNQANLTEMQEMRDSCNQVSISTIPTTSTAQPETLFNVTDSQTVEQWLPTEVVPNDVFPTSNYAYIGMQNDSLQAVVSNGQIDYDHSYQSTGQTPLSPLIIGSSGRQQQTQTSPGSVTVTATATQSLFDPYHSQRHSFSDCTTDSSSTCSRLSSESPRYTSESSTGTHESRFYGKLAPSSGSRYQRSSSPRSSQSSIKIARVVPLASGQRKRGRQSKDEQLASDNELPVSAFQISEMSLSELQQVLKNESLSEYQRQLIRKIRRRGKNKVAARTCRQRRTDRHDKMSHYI

[18] = molecular target: FAD-linked sulfhydryl oxidase ALR (Homo sapiens, UniProt P55789); assay: ALR-catalysed DTT oxidation blockers – biochemical, H2O2 detection, luminescence, cherry-pick, dose response (AID 493248)
[19] = viability of PTEN-deleted HCT116 cells – cell-based, HCT116 PTEN knockout, dose response (AID 1047); type: functional;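 also: HCT116 colon tumor cells with PTEN knocked out; cells exposed to compound for 60 hours before readout; potency for loss of cell viability measured by luminescence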
[20] = viability of HCT116 lacking mutant beta-catenin – cell-based, human colon tumor, dose response (AID 1045); type: functional;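 also: HCT116 colon tumor cells with beta catenin knocked out; cells exposed to compound for 60 hours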
[21] = test system: Streptococcus sp. 'group A'; assay: Streptococcus pyogenes SK(-)GAS viability under kanamycin – luminescence, BacTiterGlo, confirmation, counter-screen for streptokinase expression inhibitor project, dose response (AID 1900); type: functional, organism-based
[22] = molecular target: T2, Streptokinase A (Streptococcus pyogenes serotype M1, UniProt P10520); assay: viability-normalized secreted streptokinase activity reduction – plasminogen activation absorbance, OD405, dose response (AID 1914); type: functional, Streptococcus pyogenes M1 GAS;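 also: secreted streptokinase activity via plasminogen activation per viability signal from cell pellet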
T2 sequence (P10520 whole entry): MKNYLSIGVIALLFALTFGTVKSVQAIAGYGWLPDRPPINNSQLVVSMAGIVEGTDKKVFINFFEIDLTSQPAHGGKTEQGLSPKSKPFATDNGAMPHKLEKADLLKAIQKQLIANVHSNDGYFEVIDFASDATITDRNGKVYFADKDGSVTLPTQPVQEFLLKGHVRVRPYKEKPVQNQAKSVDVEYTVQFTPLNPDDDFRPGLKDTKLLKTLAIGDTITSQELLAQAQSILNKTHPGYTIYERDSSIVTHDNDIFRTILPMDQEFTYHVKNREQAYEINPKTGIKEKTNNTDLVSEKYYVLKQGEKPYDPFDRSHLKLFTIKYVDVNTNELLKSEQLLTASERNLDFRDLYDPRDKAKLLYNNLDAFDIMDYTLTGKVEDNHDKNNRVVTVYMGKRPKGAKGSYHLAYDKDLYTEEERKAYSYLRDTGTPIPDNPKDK

[23] = test system: Streptococcus; assay: GAS UMAA2166 growth inhibition – luminescence, BacTiterGlo, counter-screen for streptokinase expression inhibitor project, dose response (AID 1915); type: functional, organism-based;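 also: potency for reduction of bacterial viability or growth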

Sequence of Peroxisome proliferator-activated receptor gamma/Nuclear receptor coactivator 1 (P37231 whole entry): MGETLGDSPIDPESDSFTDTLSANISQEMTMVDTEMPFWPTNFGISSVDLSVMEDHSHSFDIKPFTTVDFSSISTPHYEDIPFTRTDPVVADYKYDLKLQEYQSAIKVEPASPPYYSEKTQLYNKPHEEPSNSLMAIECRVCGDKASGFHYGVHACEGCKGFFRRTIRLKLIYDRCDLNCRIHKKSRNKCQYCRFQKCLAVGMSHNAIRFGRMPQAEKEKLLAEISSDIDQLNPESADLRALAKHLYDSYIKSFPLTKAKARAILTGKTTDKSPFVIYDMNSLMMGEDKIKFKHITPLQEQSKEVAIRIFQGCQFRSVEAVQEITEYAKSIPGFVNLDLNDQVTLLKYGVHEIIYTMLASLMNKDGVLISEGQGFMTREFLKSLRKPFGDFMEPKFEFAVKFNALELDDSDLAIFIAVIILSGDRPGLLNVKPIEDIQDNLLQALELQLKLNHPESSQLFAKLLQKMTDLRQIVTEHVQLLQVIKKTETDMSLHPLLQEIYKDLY
Sequence of Peroxisome proliferator-activated receptor gamma/Nuclear receptor coactivator 1 (Q15788 whole entry, further chain): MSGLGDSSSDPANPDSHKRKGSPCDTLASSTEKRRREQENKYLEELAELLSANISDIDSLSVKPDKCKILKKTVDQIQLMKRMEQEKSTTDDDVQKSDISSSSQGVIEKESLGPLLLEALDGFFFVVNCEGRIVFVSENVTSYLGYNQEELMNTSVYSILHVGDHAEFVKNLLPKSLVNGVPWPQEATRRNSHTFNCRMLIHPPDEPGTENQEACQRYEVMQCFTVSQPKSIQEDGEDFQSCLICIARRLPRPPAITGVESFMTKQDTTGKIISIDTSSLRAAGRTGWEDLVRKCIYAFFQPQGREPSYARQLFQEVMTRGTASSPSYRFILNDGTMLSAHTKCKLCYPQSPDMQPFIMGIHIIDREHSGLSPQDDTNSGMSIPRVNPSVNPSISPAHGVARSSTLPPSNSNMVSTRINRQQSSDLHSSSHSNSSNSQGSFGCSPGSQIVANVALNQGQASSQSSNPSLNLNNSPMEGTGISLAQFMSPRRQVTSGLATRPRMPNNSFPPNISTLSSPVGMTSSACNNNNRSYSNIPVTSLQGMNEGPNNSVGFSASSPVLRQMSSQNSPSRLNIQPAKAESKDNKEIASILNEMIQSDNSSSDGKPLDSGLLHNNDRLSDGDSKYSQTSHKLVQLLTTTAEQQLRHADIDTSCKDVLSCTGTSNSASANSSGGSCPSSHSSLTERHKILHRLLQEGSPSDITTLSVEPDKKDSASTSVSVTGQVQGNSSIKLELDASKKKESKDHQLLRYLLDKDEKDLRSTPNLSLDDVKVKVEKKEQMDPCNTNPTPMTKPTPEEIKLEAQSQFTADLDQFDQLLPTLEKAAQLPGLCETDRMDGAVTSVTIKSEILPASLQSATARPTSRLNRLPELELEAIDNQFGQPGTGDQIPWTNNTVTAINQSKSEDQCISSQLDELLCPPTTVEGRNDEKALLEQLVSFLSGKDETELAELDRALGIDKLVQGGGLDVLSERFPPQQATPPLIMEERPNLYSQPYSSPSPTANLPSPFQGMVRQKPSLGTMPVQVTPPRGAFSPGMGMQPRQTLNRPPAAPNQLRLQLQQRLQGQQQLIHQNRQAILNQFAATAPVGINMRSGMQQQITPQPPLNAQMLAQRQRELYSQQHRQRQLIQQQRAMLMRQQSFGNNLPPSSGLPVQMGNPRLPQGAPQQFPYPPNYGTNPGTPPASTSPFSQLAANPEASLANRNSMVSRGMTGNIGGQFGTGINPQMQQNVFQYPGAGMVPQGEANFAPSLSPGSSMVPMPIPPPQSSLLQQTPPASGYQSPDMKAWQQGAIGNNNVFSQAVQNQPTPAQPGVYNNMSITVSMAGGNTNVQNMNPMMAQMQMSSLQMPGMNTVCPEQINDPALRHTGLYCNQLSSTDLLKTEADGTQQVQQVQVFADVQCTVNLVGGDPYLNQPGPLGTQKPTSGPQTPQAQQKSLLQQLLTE
Sequence of Peroxisome proliferator-activated receptor gamma/Nuclear receptor coactivator 3 (P37231 whole entry): as the sequence (P37231 whole entry) above
Sequence of Peroxisome proliferator-activated receptor gamma/Nuclear receptor coactivator 3 (Q9Y6Q9 whole entry, further chain): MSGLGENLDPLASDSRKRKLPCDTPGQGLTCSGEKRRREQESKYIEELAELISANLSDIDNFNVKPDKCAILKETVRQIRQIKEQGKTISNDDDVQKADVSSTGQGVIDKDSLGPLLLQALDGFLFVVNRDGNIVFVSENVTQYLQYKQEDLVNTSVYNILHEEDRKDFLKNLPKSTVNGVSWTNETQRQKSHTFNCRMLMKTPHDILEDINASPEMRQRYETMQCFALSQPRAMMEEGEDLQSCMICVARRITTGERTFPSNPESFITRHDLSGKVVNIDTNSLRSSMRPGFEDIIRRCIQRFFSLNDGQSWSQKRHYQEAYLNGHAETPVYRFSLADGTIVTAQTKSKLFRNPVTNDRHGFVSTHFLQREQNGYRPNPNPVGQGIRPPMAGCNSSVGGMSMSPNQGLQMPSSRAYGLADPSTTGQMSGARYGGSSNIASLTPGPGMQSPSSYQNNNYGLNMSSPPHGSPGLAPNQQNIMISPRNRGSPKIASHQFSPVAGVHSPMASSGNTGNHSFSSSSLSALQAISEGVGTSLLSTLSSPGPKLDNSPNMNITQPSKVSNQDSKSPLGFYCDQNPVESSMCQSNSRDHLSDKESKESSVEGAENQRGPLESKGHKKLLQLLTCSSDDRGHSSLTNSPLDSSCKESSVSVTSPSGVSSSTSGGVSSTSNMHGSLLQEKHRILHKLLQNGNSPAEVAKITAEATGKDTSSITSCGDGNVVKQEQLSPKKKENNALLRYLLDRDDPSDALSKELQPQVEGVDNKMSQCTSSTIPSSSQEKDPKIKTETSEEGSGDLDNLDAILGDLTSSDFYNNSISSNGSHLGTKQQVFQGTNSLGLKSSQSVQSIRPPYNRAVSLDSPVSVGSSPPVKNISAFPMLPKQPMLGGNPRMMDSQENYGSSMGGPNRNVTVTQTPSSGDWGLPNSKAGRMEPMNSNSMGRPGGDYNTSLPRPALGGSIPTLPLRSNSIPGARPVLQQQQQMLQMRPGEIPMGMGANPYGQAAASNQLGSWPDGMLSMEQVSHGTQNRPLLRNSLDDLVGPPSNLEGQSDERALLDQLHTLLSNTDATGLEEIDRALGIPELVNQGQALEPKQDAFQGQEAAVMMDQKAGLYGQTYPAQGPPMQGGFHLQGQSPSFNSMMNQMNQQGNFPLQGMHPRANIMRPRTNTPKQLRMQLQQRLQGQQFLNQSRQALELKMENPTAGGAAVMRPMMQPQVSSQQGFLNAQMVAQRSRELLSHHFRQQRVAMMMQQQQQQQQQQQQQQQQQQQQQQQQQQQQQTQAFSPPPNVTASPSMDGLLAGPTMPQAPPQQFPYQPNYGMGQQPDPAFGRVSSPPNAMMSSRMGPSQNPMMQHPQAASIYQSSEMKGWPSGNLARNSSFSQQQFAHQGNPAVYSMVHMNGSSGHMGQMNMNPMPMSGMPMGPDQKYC
Sequence of Nonstructural protein 1 (Q194T2 whole entry): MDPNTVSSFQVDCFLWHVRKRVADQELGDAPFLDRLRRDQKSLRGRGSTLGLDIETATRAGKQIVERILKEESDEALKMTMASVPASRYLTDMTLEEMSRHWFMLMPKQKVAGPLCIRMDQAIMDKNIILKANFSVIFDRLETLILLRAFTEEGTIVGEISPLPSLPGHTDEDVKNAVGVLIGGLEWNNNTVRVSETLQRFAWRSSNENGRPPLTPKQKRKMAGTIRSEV
Sequence of FAD-linked sulfhydryl oxidase ALR (P55789 whole entry): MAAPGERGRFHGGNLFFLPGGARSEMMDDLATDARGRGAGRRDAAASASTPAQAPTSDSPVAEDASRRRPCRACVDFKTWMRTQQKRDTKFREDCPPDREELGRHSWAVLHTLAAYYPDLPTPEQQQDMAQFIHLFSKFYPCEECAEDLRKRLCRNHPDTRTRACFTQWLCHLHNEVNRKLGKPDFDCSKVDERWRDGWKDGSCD

C/C(=N\OC(=O)c1ccc(F)cc1)c1sc(-c2ccccc2)nc1C
CC50 [1]: > 50 µM (active)

COc1ccccc1C(=O)Nc1nnc(CCc2ccccc2)s1
EC50 [2]: > 120 µM (not active) | EC50 [3]: 8.71 µM (active) | EC50 [4]: > 120 µM (not active)

Clc1ccc(CSc2ccc(-c3ccccn3)nn2)cc1
EC50 [5]: 12.5 µM (active) | EC50 [6]: 1.84 µM (active) | EC50 [7]: 43.7 µM (active) | EC50 [8]: > 30 µM (not active) | AC50 [9]: 5.06 µM (active)

Cc1ccc2[nH]c(SCC(=O)c3ccc(O)cc3O)nc2c1
EC50 [2]: 9.48 µM (active) | EC50 [3]: 16.5 µM (active) | EC50 [4]: 52.9 µM (active)

CSc1sc(C(=O)N2CCCCC2)c(-c2cccs2)c1C#N
EC50 [5]: > 350 µM (not active) | EC50 [7]: > 350 µM (not active)

COc1ccc(N=Nc2cnc(C)nc2-c2ccccc2)cc1
IC50 [10]: 43.8 µM (active)

COc1ccccc1C(=O)Nc1ccc(S(=O)(=O)N2CCc3ccccc32)cc1
CC50 [1]: 48.7 µM (active)

CCOC(=O)c1sc(-c2ccc(OC)cc2)cc1NC(C)=O
EC50 [11]: > 79.4 µM (inactive) | EC50 [12]: > 79.4 µM (not active) | EC50 [13]: 22 µM (not active)

CC(C)c1ccc(NC(=O)[C@@H]2CCC(=O)N2C2OC(=O)c3ccccc32)cc1 (some centres not stated)
EC50 [2]: 0.143 µM (active) | EC50 [3]: 24.5 µM (active) | EC50 [4]: 38.2 µM (active)

CC(OC(=O)c1ncc(Cl)c(Cl)c1Cl)C(=O)NC1(C#N)CCCCC1 (configuration not stated)
EC50 [5]: > 350 µM (not active) | EC50 [7]: > 350 µM (not active)

Oc1cc(Nc2cccnc2)cc2cccnc12
IC50 [10]: 8.89 µM (active) | AC50 [14]: 2.12 µM (active) | AC50 [15]: 38.8 µM (active) | AC50 [16]: 4.72 µM (active)

CN1CCN(C(=O)CSc2cc(=O)n(C)c3ccccc23)CC1
EC50 [11]: > 79.4 µM (inactive) | EC50 [12]: > 79.4 µM (not active) | EC50 [13]: > 79.4 µM (not active)

CCS(=O)(=O)c1ccc(-c2cccc(NC(=O)COc3ccccc3)c2)nn1
EC50 [5]: > 350 µM (not active) | EC50 [7]: > 350 µM (not active)

CCCOc1ccc(/C=N/Nc2ccccc2[N+](=O)[O-])c(OCCC)c1
IC50 [10]: 7.73 µM (active)

FC(F)Oc1ccc(C2NC(c3ccccc3)=NO2)cc1 (configuration not stated)
EC50 [2]: 0.115 µM (active) | IC50 [17]: 80.6 µM (inactive)

Cc1ccc(CNC(=O)CSc2c3c(nc4cc(Cl)ccc24)CCCC3)o1
EC50 [11]: > 79.4 µM (inactive) | EC50 [12]: > 79.4 µM (not active) | EC50 [13]: > 79.4 µM (not active)

OCCCn1c(C2CCCN2c2nc(-c3ccc(F)cc3)cs2)nc2cc(C(F)(F)F)ccc21 (configuration not stated)
CC50 [1]: 16.8 µM (active)

Cc1cccc(/C=C/C(=O)c2ccc(NC3=NCCCS3)cc2)c1
EC50 [2]: 23.3 µM (active) | EC50 [3]: 9.88 µM (active) | EC50 [4]: > 120 µM (not active) | EC50 [6]: 2.23 µM (active) | EC50 [8]: > 60 µM (not active) | IC50 [17]: 19.9 µM (active)

O=C(Nc1ccc2c(c1)nc1n2CCN(Cc2ccccc2)C1)c1cccs1
EC50 [2]: 17.2 µM (active) | EC50 [3]: 13.6 µM (active) | EC50 [4]: > 120 µM (not active)

Cc1cc(C)c2c(-n3cccc3)c(C(=O)NNS(=O)(=O)c3ccc(Br)cc3)sc2n1
CC50 [1]: 19 µM (active) | AC50 [18]: 74.4 µM (active)

COCCn1c(C)cc(C(=O)CN2C(=O)NC3(CCCCCCC3)C2=O)c1C
EC50 [2]: 0.94 µM (active) | EC50 [3]: 0.283 µM (active) | EC50 [4]: 8.28 µM (active)

CC(C(=O)Nc1ccccc1-c1ccccc1)N(C)Cc1nc(O)c2ccccc2n1 (configuration not stated)
EC50 [5]: > 350 µM (not active) | EC50 [7]: > 350 µM (not active)

COc1ccc(OC)c(-c2csc(NC(=O)Cc3ccccc3OC)n2)c1
CC50 [1]: 25.3 µM (active)

COc1ccccc1N1CCN(c2cc(=O)n(Cc3ccc(F)cc3)c(=O)[nH]2)CC1
EC50 [19]: 10.5 µM (active) | EC50 [20]: 10.1 µM (active)

O=S(=O)(c1ccccc1)N1CCC(c2nc(O)c3nnn(Cc4cccc(Cl)c4)c3n2)CC1
CC50 [1]: 22.3 µM (active)

COc1ccc(-c2csc(NCCc3nc4cc(Cl)c(Cl)cc4n3CCCO)n2)cc1
CC50 [1]: 19.6 µM (active)

COc1cccc2[nH]c3c(N4CCc5ccccc5C4)ncnc3c12
CC50 [1]: > 50 µM (active)

Cc1ccc(-c2nn(-c3ccccc3)cc2/C=N/NC(=O)CSc2nnc(C)n2-c2ccccc2)cc1
EC50 [2]: 13.4 µM (active) | EC50 [3]: 63.4 µM (active) | EC50 [21]: 7.47 µM (active) | EC50 [4]: 16.6 µM (active) | EC50 [22]: 65.8 µM (active) | EC50 [23]: 33.5 µM (active)

CSc1nc(Sc2ccccc2Cl)c2ccccc2n1
EC50 [11]: > 79.4 µM (inactive) | EC50 [12]: > 79.4 µM (not active) | EC50 [13]: > 79.4 µM (not active)

CC(=O)c1cccc(NS(=O)(=O)c2ccc(-c3cc(C)no3)s2)c1
EC50 [5]: > 350 µM (not active) | EC50 [7]: > 350 µM (not active)

Cc1ccc(C)c(CNS(=O)(=O)c2ccc3c(c2)C(C)(C)C(=O)N3C)c1
EC50 [5]: > 350 µM (not active) | EC50 [7]: > 350 µM (not active)

O=C(O)CN(CC(=O)O)CC(=O)O [NITRILOTRIACETIC ACID]
IC50 [10]: 17.7 µM (active)

CCc1ccc(Nc2c([N+](=O)[O-])nn(-c3ccccc3)[n+]2[O-])cc1
EC50 [6]: 0.461 µM (active) | EC50 [8]: > 60 µM (not active) | IC50 [10]: 81.8 µM (active)

CCn1c(=O)cc(SCC(=O)N(C)Cc2ccccc2)c2ccccc21
EC50 [11]: > 79.4 µM (inactive) | EC50 [12]: > 79.4 µM (not active) | EC50 [13]: > 79.4 µM (not active)
